Data as given in patent US8008525B2, “Receptor function regulating agent” (Takeda Pharmaceutical Company Limited, priority 2003, dated 2011).

Biological target: T1, human 14273 receptor (Homo sapiens, UniProt Q5NUL3)
T1 construct: expressed in transfected cells
T1 sequence (Q5NUL3 1-361): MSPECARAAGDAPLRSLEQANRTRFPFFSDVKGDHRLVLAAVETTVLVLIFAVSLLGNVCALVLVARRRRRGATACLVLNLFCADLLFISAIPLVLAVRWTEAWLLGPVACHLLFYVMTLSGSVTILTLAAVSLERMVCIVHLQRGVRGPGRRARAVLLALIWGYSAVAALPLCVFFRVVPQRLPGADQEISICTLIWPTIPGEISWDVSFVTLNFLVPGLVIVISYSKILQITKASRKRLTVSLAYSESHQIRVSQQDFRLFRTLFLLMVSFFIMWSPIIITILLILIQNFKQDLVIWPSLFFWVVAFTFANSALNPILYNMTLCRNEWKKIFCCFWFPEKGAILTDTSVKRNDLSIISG
Experiment: Test Example 1: regulating effect for 14273 receptor function (agonist effect), change in intracellular calcium level by FLIPR
Format: cell-based
Settings: CHO cell line (No. 104) expressing human 14273 receptor, change of fluorescent intensity after 35 seconds
Method: CHO cell lines (No. 104) in which a human 14273 receptor has expressed was diluted to contain 3×10^4/100 μl cells, and dispensed in Black walled 96-well plate (Costar) at a density of 100 μl/well, followed by culturing overnight in a CO2 incubator. A change in intracellular calcium level was measured using FLIPR (Molecular Device). The method is described as below. 50 μg of Fluo-3AM (DOJIN) was dissolved in 21 μl of DMSO (DOJIN) and an equal volume of 20% pluronic acid (Molecular Probes) was added thereto, followed by mixing them. The mixture was added to 10.6 ml of the assay buffer [which is prepared by adding 10 ml of a solution, which is prepared by adding 20 ml of 1 M HEPES (pH 7.4, DOJIN) to 1 L of HBSS (Invitrogen), dissolving 710 mg of probenecid (Sigma) in 5 ml of 1 N NaOH, and further adding 5 ml of the above-mentioned HBSS/HEPES solution and mixing it.] supplemented with 105 μl of fetal bovine serum to prepare a fluorescent dye solution. The medium of the cell plate was removed, the fluorescent dye solution was dispensed in 100 μl each per well. The culturing was performed in a CO2 incubator for 1 hour to incorporate the fluorescent dye into the cells. The cells after culturing were washed with the assay buffer. The compounds to be added to the cells were diluted to each concentration with a buffer solution to which CHAPS (DOJIN) was added in 0.015%, and dispensed in a plate for the test sample. Following the pretreatment above, a change in intracellular calcium level after addition of the compound was determined with FLIPR to investigate the agonist effect. An EC50 value was calculated from dose-reaction curve using the change of fluorescent intensity after 35 seconds from the reaction initiation.

Row | Structure (SMILES) | EC50 [µM]
1 | O=C(O)CCc1cc(F)c(OCc2cccc(Oc3ccccc3)c2)c(F)c1 [Example 2, 3,5-Difluoro-4-[(3-phenoxyphenyl)methoxy]benzenepropanoic acid] | ≤ 10
2 | Cc1ccccc1COc1c(F)cc(CCC(=O)O)cc1F [Example 42, 3-{3,5-difluoro-4-[(2-methylbenzyl)oxy]phenyl}propanoic acid] | ≤ 10
3 | Cc1ccc(Oc2cccc(COc3c(F)cc(CCC(=O)O)cc3F)c2)cc1 [Example 56, 3-(3,5-difluoro-4-{[3-(4-methylphenoxy)benzyl]oxy}phenyl)propanoic acid] | ≤ 10
4 | Cc1ccc2c(c1)C(Oc1ccc(CCC(=O)O)cc1)C(C)(C)C2 (stereo not shown) [Reference Example 50, 4-[(2,3-Dihydro-2,2,6-trimethyl-1H-inden-1-yl)oxy]benzenepropanoic acid] | ≤ 10
5 | O=C(O)CCc1cc(F)c(OCc2cccc(Oc3ccsc3)c2)c(F)c1 [Example 62, 3-(3,5-difluoro-4-{[3-(3-thienyloxy)benzyl]oxy}phenyl)propanoic acid] | ≤ 10
6 | O=C(O)CCc1cc(F)c(OCc2cccc(OC3CCCCC3)c2)c(F)c1 [Example 52, 3-(4-{[3-(cyclohexyloxy)benzyl]oxy}-3,5-difluorophenyl)propanoic acid] | ≤ 10
7 | O=C(O)CCc1cc(F)c(OCc2ccccc2N2CCCCC2)c(F)c1 [Example 44, 3-{3,5-difluoro-4-[(2-piperidin-1-ylbenzyl)oxy]phenyl}propanoic acid] | ≤ 10
8 | O=C(O)CCc1ccc(OCc2cccc(Oc3ccccc3)c2)cc1 [Reference Example 8, 4-[(3-Phenoxyphenyl)methoxy]benzenepropanoic acid] | ≤ 10
9 | CCOc1cccc(COc2ccc(CCC(=O)O)cc2F)c1 [Example 188, 3-{4-[(3-ethoxybenzyl)oxy]-3-fluorophenyl}propanoic acid] | ≤ 10
10 | O=C(O)CCc1ccc(OCc2cc(O)cc(Oc3ccccc3)c2)c(F)c1 [Example 118, 3-{3-fluoro-4-[(3-hydroxy-5-phenoxybenzyl)oxy]phenyl}propanoic acid] | ≤ 10
11 | COc1ccc(Oc2cccc(COc3c(F)cc(CCC(=O)O)cc3F)c2)cc1 [Example 46, 3-(3,5-difluoro-4-{[3-(4-methoxyphenoxy)benzyl]oxy}phenyl)propanoic acid] | ≤ 10
12 | CC1(C)Cc2ccc(Cl)cc2C1Oc1ccc(CCC(=O)O)cc1 (stereo not shown) [Reference Example 47, 4-[(6-Chloro-2,3-dihydro-2,2-dimethyl-1H-inden-1-yl)oxy]benzenepropanoic acid] | ≤ 10
13 | CC(C)COc1ccccc1COc1c(F)cc(CCC(=O)O)cc1F [Example 32, 3-{3,5-difluoro-4-[(2-isobutoxybenzyl)oxy]phenyl}propanoic acid] | ≤ 10
14 | O=C(O)CCc1ccc(OCc2cccc(-c3ccccc3)c2)c(Cl)c1 [Reference Example 18, 4-([1,1′-Biphenyl]-3-ylmethoxy)-3-chlorobenzenepropanoic acid] | ≤ 10
15 | O=C(O)CCc1ccc(OCc2cccc3c2OCO3)c(F)c1 [Example 102, 3-[4-(1,3-benzodioxol-4-ylmethoxy)-3-fluorophenyl]propanoic acid] | ≤ 10
16 | O=C(O)CCc1cc(F)c(OC2CCc3ccccc32)c(F)c1 (stereo not shown) [Reference Example 14, 3,5-Difluoro-4-[(2,3-dihydro-1H-inden-1-yl)oxy]benzenepropanoic acid] | ≤ 10
17 | Cc1ccc(Oc2cccc(COc3ccc(CCC(=O)O)cc3F)c2)cc1 [Example 171, 3-(3-fluoro-4-{[3-(4-methylphenoxy)benzyl]oxy}phenyl)propanoic acid] | ≤ 10
18 | COc1cccc(COc2c(F)cc(CCC(=O)O)cc2F)c1 [Example 6, 3,5-Difluoro-4-[(3-methoxyphenyl)methoxy]benzenepropanoic acid] | ≤ 10
19 | O=C(O)CCc1cc(F)c(OCc2cccc(Oc3ccccn3)c2)c(F)c1 [Example 60, 3-(3,5-difluoro-4-{[3-(pyridin-2-yloxy)benzyl]oxy}phenyl)propanoic acid] | ≤ 10
20 | CCOc1cccc(COc2c(F)cc(CCC(=O)O)cc2F)c1 [Example 8, 4-[(3-Ethoxyphenyl)methoxy]-3,5-difluorobenzenepropanoic acid] | ≤ 10

Row | Structure (SMILES) | EC50 [µM]
21 | CCOc1cc(COc2ccc(CCC(=O)O)cc2F)cc(OCC)c1 [Example 96, 3-{4-[(3,5-diethoxybenzyl)oxy]-3-fluorophenyl}propanoic acid] | ≤ 10
22 | O=C(O)CCc1cc(F)c(OCc2cccc(Oc3cccs3)c2)c(F)c1 [Example 64, 3-(3,5-difluoro-4-{[3-(2-thienyloxy)benzyl]oxy}phenyl)propanoic acid] | ≤ 10
23 | COc1cc(COc2ccc(CCC(=O)O)cc2F)cc(OC)c1 [Example 94, 3-{4-[(3,5-dimethoxybenzyl)oxy]-3-fluorophenyl}propanoic acid] | ≤ 10
24 | CC(C)COc1cccc(COc2c(F)cc(CCC(=O)O)cc2F)c1 [Example 135, 3-{3,5-difluoro-4-[(3-isobutoxybenzyl)oxy]phenyl}propanoic acid] | ≤ 10
25 | O=C(O)CCc1ccc(OCc2ccccc2-c2ccccc2)c(Cl)c1 [Example 24, 4-([1,1′-Biphenyl]-2-ylmethoxy)-3-chlorobenzenepropanoic acid] | ≤ 10
26 | O=C(O)CCc1cc(F)c(OCc2cccc(Oc3ccc(Cl)cc3)c2)c(F)c1 [Example 48, 3-(4-{[3-(4-chlorophenoxy)benzyl]oxy}-3,5-difluorophenyl)propanoic acid] | ≤ 10
27 | CC(C)Oc1ccccc1COc1c(F)cc(CCC(=O)O)cc1F [Example 34, 3-{3,5-difluoro-4-[(2-isopropoxybenzyl)oxy]phenyl}propanoic acid] | ≤ 10
28 | O=C(O)CCc1ccc(OCc2cccc(Oc3ccccc3)c2)c(Cl)c1 [Example 4, 3-Chloro-4-[(3-phenoxyphenyl)methoxy]benzenepropanoic acid] | ≤ 10
29 | O=C(O)CCc1ccc(OCc2ccccc2-c2ccccc2)c(F)c1 [Example 22, 4-([1,1′-Biphenyl]-2-ylmethoxy)-3-fluorobenzenepropanoic acid] | ≤ 10
30 | Cc1cc(CCC(=O)O)ccc1OCc1cccc(Oc2ccccc2)c1 [Example 173, 3-(3-methyl-4-[(3-phenoxybenzyl)oxy]phenyl)propanoic acid] | ≤ 10
31 | O=C(O)CCc1ccc(OCc2cccc(Oc3ccccc3)c2)c(F)c1 [Example 12, 3-Fluoro-4-[(3-phenoxyphenyl)methoxy]benzenepropanoic acid] | ≤ 10
32 | O=C(O)CCc1cc(F)c(OCc2cccc(OC3CCCC3)c2)c(F)c1 [Example 58, 3-(4-{[3-(cyclopentyloxy)benzyl]oxy}-3,5-difluorophenyl)propanoic acid] | ≤ 10
33 | O=C(O)CCc1ccc(OCc2ccccc2Oc2ccccc2)c(F)c1 [Example 18, 3-Fluoro-4-[(2-phenoxyphenyl)methoxy]benzenepropanoic acid] | ≤ 10
34 | COc1ccc2c(c1)C(Oc1ccc(CCC(=O)O)cc1)C(C)(C)C2 (stereo not shown) [Reference Example 44, 4-[(2,3-Dihydro-6-methoxy-2,2-dimethyl-1H-inden-1-yl)oxy]benzenepropanoic acid] | ≤ 10
35 | O=C(O)CCc1ccc(OC2CCCc3ccccc32)cc1 (stereo not shown) [Reference Example 20, 4-[(1,2,3,4-Tetrahydronaphthalen-1-yl)oxy]benzenepropanoic acid] | ≤ 10
36 | Cc1cc(CCC(=O)O)ccc1OCc1cccc(OC(C)C)c1 [Example 178, 3-{4-[(3-isopropoxybenzyl)oxy]-3-methylphenyl}propanoic acid] | ≤ 10
37 | O=C(O)CCc1cc(F)c(OCc2ccccc2OC2CCCC2)c(F)c1 [Example 28, 3-(4-{[2-(cyclopentyloxy)benzyl]oxy}-3,5-difluorophenyl)propanoic acid] | ≤ 10
38 | O=C(O)CCc1cc(F)c(OCc2ccccc2OC2CCCCC2)c(F)c1 [Example 36, 3-(4-{[2-(cyclohexyloxy)benzyl]oxy}-3,5-difluorophenyl)propanoic acid] | ≤ 10
39 | O=C(O)CCc1ccc(OCc2cccc(Oc3ccc(Cl)cc3)c2)c(F)c1 [Example 163, 3-(3-fluoro-4-{[3-(4-chlorophenoxy)benzyl]oxy}phenyl)propanoic acid] | ≤ 10
40 | CCOc1cccc(COc2ccc(CCC(=O)O)cc2C)c1 [Example 180, 3-{4-[(3-ethoxybenzyl)oxy]-3-methylphenyl}propanoic acid] | ≤ 10
